In article PMC5515859, “Metabolism of F18, a Derivative of Calanolide A, in Human Liver Microsomes and Cytosol” (Frontiers in Pharmacology, 2017):

Legend:
[1] = tested on: human liver microsomes; assay: Incubation of F18 with human liver microsomes, metabolite profiling by LC-MS/MS; format: in vitro ADME; set-up: key: +: Metabolite detected; −: metabolite not detected; conditions: F18 50 μM, 1 h
Method: (§1) A stock solution of F18 (5 mM) was prepared in methanol. F18 (50 μM) was incubated with RLMs/DLMs/MLMs/HLMs and HLcy (0.5 mg protein/mL) in 50 mM Tris-HCl buffer containing 5 mM MgCl2 (pH 7.4) in a final volume of 200 μL. The final concentration of methanol in the incubation system was 1% (v/v). After 3 min of preincubation at 37°C, the reactions were initiated by the addition of NADPH-regenerating system (10-mM β-NADP, 100-mM 6-G-P and 10-U/mL 6-G-P-DH) or NADH. After incubation for 1 h, the reactions were terminated by the addition of two volumes of ice-cold acetonitrile. Samples without NADPH or NADH were included as controls. The incubation mixture was vortexed and centrifuged at 13,300 × g for 5 min. A 10 μL aliquot of the supernatant was injected into an LC-tandem mass spectrometer (LC-MS/MS) for analysis.
(§2) Metabolic profiling studies were performed with a Finnigan TSQ Quantum MS instrument with an electrospray ionization probe and a Finnigan SURVEYOR HPLC system (Thermo Finnigan, San Jose, CA, USA). HPLC was performed with a Zorbax SB-C18 column (2.1 × 100 mm, 3.5 μm, Agilent Corporation, CA, USA) with a column temperature of 35°C and a flow rate of 200 μL/min. F18 and its metabolites were eluted using a linear gradient method with a mobile phase consisting of solvent A (water with 0.1% formic acid) and solvent B (acetonitrile with 0.1% formic acid). […] The samples were analyzed in the positive-ionization mode, and the TSQ capillary temperature was set to 350°C. Nitrogen was used as both the sheath gas and the auxiliary gas and was delivered at 30 psi and 15 psi, respectively. The spray voltage and tube lens were set to 3,800 V and 123 V, respectively. The full-width half maximum (FWHM) was set to 0.7. MS data were acquired in the selective ion-recording mode or by collecting full scans from 200 to 600 m/z at 1 scan/s. The mass spectrometer and HPLC system were operated using Xcalibur 2.0.7 software.

[2] = tested on: rat liver microsomes; assay: Incubation of F18 with rat liver microsomes, metabolite profiling; format: in vitro ADME; set-up: key: +: Metabolite detected; −: metabolite not detected; conditions: F18 50 μM, 1 h
Method: as §1, §2

[3] = Pharmacokinetics in rats after oral administration of F18; format: in vivo, Sprague-Dawley rats; conditions: oral F18 50 mg/kg; for Cmax / Tmax / half-life / MRT last / MRT inf: Sprague-Dawley; for Cmax / Tmax / half-life / MRT last / MRT inf / AUC0−∞ / Systemic exposure relative to that of the parent drug: rat blood; for Cmax / Tmax / half-life / MRT last / MRT inf / AUC0−∞: mean ± SD, n = 5; for MRT last: read-out: MRT0−t; for MRT inf: read-out: MRT0−∞; for Systemic exposure relative to that of the parent drug: from AUC0−∞
Method: To investigate the pharmacokinetic characteristics of F18 and its major metabolites, five rats were intragastrically administered F18 at a dose of 50 mg/kg. Blood samples were collected in heparinized ice-bath tubes from the suborbital veniplex at 0, 0.25, 0.5, 1, 2, 4, 6, 8, 12, 16, and 24 h postdose. The blood concentrations of F18 and its major metabolites were determined by LC-MS/MS and their pharmacokinetic parameters were calculated through non-compartmental analysis using WinNonlin Version 6.1 (Pharsight, Mountain View, CA, USA).
For the blood samples, F18, M1, M3-1, and M3-2 were simultaneously quantified using the following elution gradient: Solvent B was maintained at 15% for 2 min, increased to 85% in 1 min, maintained at 85% for 5 min, decreased to 15% in 0.5 min and maintained at 15% for 4.5 min. Detection was also performed using a Finnigan TSQ Quantum MS instrument with an electrospray ionization probe operated in the positive mode.
Calibration curves for F18 and its metabolites were fitted via linearly weighted (1/x^2) least-squares regression. The correlation coefficient values of F18 and its metabolites in the incubations were >0.99 for the range 10–5,000 nM; the LOQ was 10 nM with a signal-to-noise ratio >10:1; the accuracies were 90–113% and the precisions (RSD) were <10.5%. In the blood samples, the correlation coefficient values for F18, M1, M3-1, and M3-2 were >0.99 for the range 5–2,000 nM; the LOQ was 5 nM with the signal-to-noise ratio >10:1; the accuracies were 91–112% and the precisions (RSD) were <9.6%. In addition, no interference was found in the retention time of each analyte in both the incubated samples and the blood samples.

[4] = tested on: VSV-G/HIV-1 viruses; assay: microbe, parasite or virus in culture; format: cell-based; conditions: for IC50: Human immunodeficiency virus 1, HEK-293T, 48 h, read-out: IC50, inhibition of HIV-1 replication
[5] = biological target: T1, recombinant FMO1 (Homo sapiens, UniProt Q01740); assay: Metabolism of F18 by cDNA-expressed FMO1; format: in vitro ADME; conditions: F18 10 μM, 50 pmol/mL enzyme, 1 h
T1 construct: purchased BD Gentest (Woburn, MA, USA)
T1 sequence (Q01740 1-532): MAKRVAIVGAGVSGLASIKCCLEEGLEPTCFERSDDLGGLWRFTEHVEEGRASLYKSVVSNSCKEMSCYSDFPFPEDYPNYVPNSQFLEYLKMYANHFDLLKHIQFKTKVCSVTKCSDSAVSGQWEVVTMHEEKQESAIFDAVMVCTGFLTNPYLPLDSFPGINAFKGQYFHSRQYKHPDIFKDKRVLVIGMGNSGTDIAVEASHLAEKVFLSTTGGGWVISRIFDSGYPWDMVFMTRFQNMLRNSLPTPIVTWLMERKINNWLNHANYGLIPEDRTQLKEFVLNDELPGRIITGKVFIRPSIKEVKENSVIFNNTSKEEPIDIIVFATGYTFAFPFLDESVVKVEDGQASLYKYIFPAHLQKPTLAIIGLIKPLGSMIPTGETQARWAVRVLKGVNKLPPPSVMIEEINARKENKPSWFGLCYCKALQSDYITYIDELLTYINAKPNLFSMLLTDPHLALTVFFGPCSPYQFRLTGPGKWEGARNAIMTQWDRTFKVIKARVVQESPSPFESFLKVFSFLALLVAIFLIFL
Method: To further verify the roles of CYPs and FMOs in the metabolism of F18 in humans, F18 (10 μM) was incubated individually with 14 cDNA-expressed human CYP isozymes (50-pmol/mL CYP1A1, CYP1A2, CYP2A6, CYP2B6, CYP2C8, CYP2C9, CYP2C19, CYP2D6, CYP2E1, CYP2J2, CYP3A4, CYP4F2, CYP4F3, and CYP4A11) and three cDNA-expressed FMO enzymes (50-pmol/mL FMO1, FMO3, and FMO5). The incubation conditions were similar to those used for HLMs (described above), with the exception of the incubating time […]. Samples incubated without NADPH were used as the negative control.

Compound	F18 metabolite detected in HLM [1]	F18 metabolite detected in RLM [2]	Cmax [3] [nM]	Tmax [3] [h]	half-life [3] [h]	MRT last [3] [h]	MRT inf [3] [h]	Concentration in rat blood (in words) [3]	AUC0−∞ [3]	Systemic exposure relative to that of the parent drug [3] [%]	IC50 [4] [nM]	Metabolite detected in incubation with recombinant FMO1 [5]	Potency against HIV-1 relative to the parent compound [4]
CCCc1cc(=O)oc2c3c(c4c(c12)OC(C)(C)C=C4)O[C@H](CCl)C[C@H]3O (relative stereo) [Metabolite M3-1, trans-12-hydroxy F18]	+	+	165 ± 50.9	4 ± 2.3	3.4 ± 0.64	8.6 ± 0.6	8.9 ± 0.7	detected in high concentrations	1,965 h^*nM	~38	34	detected	
CCCc1cc(=O)oc2c3c(c4c(c12)OC(C)(C)C=C4)O[C@H](CCl)C[C@@H]3O (relative stereo) [Metabolite M3-2, cis-12-hydroxy F18]	+	+	219 ± 51.2	4 ± 2.3	3 ± 0.4	8.8 ± 1.2	13.2 ± 7.2	detected in high concentrations	3,353 h^*nM	~65	51	detected	
CCCc1cc(=O)oc2c3c(c4c(c12)OC(C)(C)C=C4)OC(CO)CC3=O (centres unmarked) [Metabolite M1]	+	+	274 ± 111	4 ± 1.6	4.8 ± 2.1	8.4 ± 0.5	9.4 ± 1.5	detected in high concentrations	3,290 h^*nM			not detected	one fifth
